# Measurements taken from PubChem BioAssay AID1845212 (Molecular Pharmacology Branch, DTP, NCI, 2023).
# Tested on: NCI-H719 tumor spheroids, viability
# Test: Anticancer human tumor NCI-H719 cell line growth inhibition;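 further: spheroids exposed to compounds for seven days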;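 on viability, T/C: percent viability relative to DMSO vehicle control as 100%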
# Settings: spheroids with HUVEC and MSC; for IC50: curve of first compound; for viability, T/C: stronger effect = lower value
# In short: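 Single agents and combinations were tested on spheroids built from tumor cells plus HUVEC and hMSC, at half-log dilutions starting at or near clinical Cmax, else 10 microM; final DMSO 0.25% (v/v).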
smiles,measurement,setting,value
COc1ccc([C@@H](O)c2cc(-c3ncnc4cc(N5CCOCC5)ccc34)c(F)cc2Cl)nn1 + Cn1nnc2c(C(N)=O)ncn2c1=O,IC50,second compound 1 µM,797 nM
same,IC50,second compound 3.16 µM,873 nM
same,IC50,second compound 10 µM,1100 nM
same,IC50,second compound 31.6 µM,810 nM
same,IC50,second compound 100 µM,506 nM
same,"viability, T/C","second compound 1 µM, first compound 0.0316 µM",80.1%
same,"viability, T/C","second compound 1 µM, first compound 0.1 µM",78.5%
same,"viability, T/C","second compound 1 µM, first compound 0.316 µM",76.6%
same,"viability, T/C","second compound 1 µM, first compound 1 µM",34.6%
same,"viability, T/C","second compound 1 µM, first compound 3.16 µM",46.3%
same,"viability, T/C","second compound 1 µM, first compound 10 µM",49.5%
same,"viability, T/C","second compound 3.16 µM, first compound 0.0316 µM",102%
same,"viability, T/C","second compound 3.16 µM, first compound 0.1 µM",83.7%
same,"viability, T/C","second compound 3.16 µM, first compound 0.316 µM",77.8%
same,"viability, T/C","second compound 3.16 µM, first compound 1 µM",40.8%
same,"viability, T/C","second compound 3.16 µM, first compound 3.16 µM",45.6%
same,"viability, T/C","second compound 3.16 µM, first compound 10 µM",52.4%
same,"viability, T/C","second compound 10 µM, first compound 0.0316 µM",99.2%
same,"viability, T/C","second compound 10 µM, first compound 0.1 µM",94.1%
same,"viability, T/C","second compound 10 µM, first compound 0.316 µM",65.6%
same,"viability, T/C","second compound 10 µM, first compound 1 µM",50.8%
same,"viability, T/C","second compound 10 µM, first compound 3.16 µM",48.9%
same,"viability, T/C","second compound 10 µM, first compound 10 µM",33.8%
same,"viability, T/C","second compound 31.6 µM, first compound 0.0316 µM",99.3%
same,"viability, T/C","second compound 31.6 µM, first compound 0.1 µM",101%
same,"viability, T/C","second compound 31.6 µM, first compound 0.316 µM",68.1%
same,"viability, T/C","second compound 31.6 µM, first compound 1 µM",46.7%
same,"viability, T/C","second compound 31.6 µM, first compound 3.16 µM",30.4%
same,"viability, T/C","second compound 31.6 µM, first compound 10 µM",20.8%
same,"viability, T/C","second compound 100 µM, first compound 0.0316 µM",89.9%
same,"viability, T/C","second compound 100 µM, first compound 0.1 µM",81%
same,"viability, T/C","second compound 100 µM, first compound 0.316 µM",55%
same,"viability, T/C","second compound 100 µM, first compound 1 µM",36.5%
same,"viability, T/C","second compound 100 µM, first compound 3.16 µM",34%
same,"viability, T/C","second compound 100 µM, first compound 10 µM",17.3%
O=C(c1cc(Cc2n[nH]c(=O)c3ccccc23)ccc1F)N1CCN(C(=O)C2CC2)CC1 + CC[C@@]1(O)C(=O)OCc2c1cc1n(c2=O)Cc2cc3c(CN(C)C)c(O)ccc3nc2-1,IC50,second compound 0.003 µM,< 94.9 nM
same,IC50,second compound 0.00949 µM,< 94.9 nM
same,IC50,second compound 0.03 µM,< 94.9 nM
same,IC50,second compound 0.0949 µM,< 94.9 nM
same,IC50,second compound 0.3 µM,< 94.9 nM
same,"viability, T/C","second compound 0.003 µM, first compound 0.0949 µM",8.96%
same,"viability, T/C","second compound 0.003 µM, first compound 0.3 µM",7.42%
same,"viability, T/C","second compound 0.003 µM, first compound 0.949 µM",6.71%
same,"viability, T/C","second compound 0.003 µM, first compound 3 µM",6.81%
same,"viability, T/C","second compound 0.003 µM, first compound 9.49 µM",5.81%
same,"viability, T/C","second compound 0.003 µM, first compound 30 µM",4.97%
same,"viability, T/C","second compound 0.00949 µM, first compound 0.0949 µM",6.26%
same,"viability, T/C","second compound 0.00949 µM, first compound 0.3 µM",5.9%
same,"viability, T/C","second compound 0.00949 µM, first compound 0.949 µM",6.11%
same,"viability, T/C","second compound 0.00949 µM, first compound 3 µM",5.87%
same,"viability, T/C","second compound 0.00949 µM, first compound 9.49 µM",5.83%
same,"viability, T/C","second compound 0.00949 µM, first compound 30 µM",5.35%
same,"viability, T/C","second compound 0.03 µM, first compound 0.0949 µM",5.59%
same,"viability, T/C","second compound 0.03 µM, first compound 0.3 µM",5.66%
same,"viability, T/C","second compound 0.03 µM, first compound 0.949 µM",6.11%
same,"viability, T/C","second compound 0.03 µM, first compound 3 µM",5.5%
same,"viability, T/C","second compound 0.03 µM, first compound 9.49 µM",5.9%
same,"viability, T/C","second compound 0.03 µM, first compound 30 µM",5.66%
same,"viability, T/C","second compound 0.0949 µM, first compound 0.0949 µM",5.78%
same,"viability, T/C","second compound 0.0949 µM, first compound 0.3 µM",5.76%
same,"viability, T/C","second compound 0.0949 µM, first compound 0.949 µM",5.69%
same,"viability, T/C","second compound 0.0949 µM, first compound 3 µM",5.69%
same,"viability, T/C","second compound 0.0949 µM, first compound 9.49 µM",5.97%
same,"viability, T/C","second compound 0.0949 µM, first compound 30 µM",5.61%
same,"viability, T/C","second compound 0.3 µM, first compound 0.0949 µM",5.43%
same,"viability, T/C","second compound 0.3 µM, first compound 0.3 µM",5.79%
same,"viability, T/C","second compound 0.3 µM, first compound 0.949 µM",6.36%
same,"viability, T/C","second compound 0.3 µM, first compound 3 µM",5.43%
same,"viability, T/C","second compound 0.3 µM, first compound 9.49 µM",5.25%
same,"viability, T/C","second compound 0.3 µM, first compound 30 µM",4.62%
